{
  "source": "paper PMC5218480",
  "about": "(PLoS ONE, 2017)",
  "system": "MV-4-11 cells",
  "assay": "Gene expression microarray analysis (Affymetrix PrimeView) and GSEA",
  "format": "cell-based, human",
  "design": "RFU PODN (11730768_x_at) / Fold change /veh PODN (11730768_x_at) / RFU LINC00158 (11744669_a_at) / Fold change /veh LINC00158 (11744669_a_at) / RFU DUSP10 (11751237_a_at) / Fold change /veh DUSP10 (11751237_a_at) / RFU ID3 (11757404_x_at) / Fold change /veh ID3 (11757404_x_at) / RFU PLEKHG5 (11737974_s_at) / Fold change /veh PLEKHG5 (11737974_s_at) / RFU LRRC4B (11730491_at) / Fold change /veh LRRC4B (11730491_at) / RFU GIMAP4 (11747438_a_at) / Fold change /veh GIMAP4 (11747438_a_at) / RFU KRT8 (11758183_x_at) / Fold change /veh KRT8 (11758183_x_at) / RFU CNN1 (11734310_a_at) / Fold change /veh CNN1 (11734310_a_at) / RFU VPS37D (11726825_at) / Fold change /veh VPS37D (11726825_at) / RFU C10orf10 (11716522_x_at) / Fold change /veh C10orf10 (11716522_x_at) / RFU KIR2DL2 /// KIR2DL4 /// KIR2DL5A /// KIR2DL5B /// KIR2DS1 /// KIR2DS2 /// KIR2DS3 /// KIR2DS4 /// KIR3DL3 /// KIR3DL3 /// KIR3DS1 (11738374_at) / Fold change /veh KIR2DL2 /// KIR2DL4 /// KIR2DL5A /// KIR2DL5B /// KIR2DS1 /// KIR2DS2 /// KIR2DS3 /// KIR2DS4 /// KIR3DL3 /// KIR3DL3 /// KIR3DS1 (11738374_at) / RFU C1QL1 (11718748_at) / Fold change /veh C1QL1 (11718748_at) / RFU TMPRSS4 (11747572_a_at) / Fold change /veh TMPRSS4 (11747572_a_at) / RFU HAMP (11756126_x_at) / Fold change /veh HAMP (11756126_x_at) / RFU RNFT2 (11725882_a_at) / Fold change /veh RNFT2 (11725882_a_at) / RFU NR4A2 (11747474_a_at) / Fold change /veh NR4A2 (11747474_a_at) / RFU ABCC12 (11746883_a_at) / Fold change /veh ABCC12 (11746883_a_at) / RFU TMEM136 (11760407_x_at) / Fold change /veh TMEM136 (11760407_x_at) / RFU CLDN22 /// WWC2 (11732394_at) / Fold change /veh CLDN22 /// WWC2 (11732394_at) / RFU HLA-DPB1 (11760878_x_at) / Fold change /veh HLA-DPB1 (11760878_x_at) / RFU SPINT1 (11716480_a_at) / Fold change /veh SPINT1 (11716480_a_at) / RFU GAP43 (11754022_s_at) / Fold change /veh GAP43 (11754022_s_at) / RFU A4GNT (11735810_at) / Fold change /veh A4GNT (11735810_at) / RFU PRB3 (11715151_x_at) / Fold change /veh PRB3 (11715151_x_at) / RFU TUBB4B (11761932_at) / Fold change /veh TUBB4B (11761932_at) / RFU CAPN14 (11732068_a_at) / Fold change /veh CAPN14 (11732068_a_at) / RFU TMCC2 (11721928_a_at) / Fold change /veh TMCC2 (11721928_a_at) / RFU IRGQ (11745062_a_at) / Fold change /veh IRGQ (11745062_a_at) / RFU FAM174B (11720279_a_at) / Fold change /veh FAM174B (11720279_a_at) / RFU TMPRSS4 (11748680_a_at) / Fold change /veh TMPRSS4 (11748680_a_at) / RFU FAM212B (11763350_a_at) / Fold change /veh FAM212B (11763350_a_at) / RFU PLEKHG5 (11743358_a_at) / Fold change /veh PLEKHG5 (11743358_a_at) / RFU ZSCAN30 (11745921_a_at) / Fold change /veh ZSCAN30 (11745921_a_at) / RFU CMKLR1 (11741424_a_at) / Fold change /veh CMKLR1 (11741424_a_at) / RFU LOC101060620 /// MAPK8IP1 (11723275_at) / Fold change /veh LOC101060620 /// MAPK8IP1 (11723275_at) / RFU SPTSSB (11747773_x_at) / Fold change /veh SPTSSB (11747773_x_at) / RFU PRSS12 (11739890_at) / Fold change /veh PRSS12 (11739890_at) / RFU BIN1 (11741810_x_at) / Fold change /veh BIN1 (11741810_x_at) / RFU WNT11 (11732464_a_at) / Fold change /veh WNT11 (11732464_a_at) / RFU C10orf10 (11716521_a_at) / Fold change /veh C10orf10 (11716521_a_at) / RFU C5orf56 (11738089_at) / Fold change /veh C5orf56 (11738089_at) / RFU CYB561 (11721691_x_at) / Fold change /veh CYB561 (11721691_x_at) / RFU ANKRD19P (11752326_a_at) / Fold change /veh ANKRD19P (11752326_a_at) / RFU OR2T12 /// OR2T33 /// OR2T8 (11738714_s_at) / Fold change /veh OR2T12 /// OR2T33 /// OR2T8 (11738714_s_at) / RFU VCAN (11748164_a_at) / Fold change /veh VCAN (11748164_a_at) / RFU JSRP1 (11732532_at) / Fold change /veh JSRP1 (11732532_at) / RFU KRTAP10-11 (11738290_x_at) / Fold change /veh KRTAP10-11 (11738290_x_at) / RFU MYO3A (11730013_a_at) / Fold change /veh MYO3A (11730013_a_at) / RFU EBF3 (11725865_a_at) / Fold change /veh EBF3 (11725865_a_at) / RFU CAMK2N1 (11719241_x_at) / Fold change /veh CAMK2N1 (11719241_x_at) / RFU C5orf56 (11738088_a_at) / Fold change /veh C5orf56 (11738088_a_at) / RFU OLFML3 (11715873_a_at) / Fold change /veh OLFML3 (11715873_a_at) / RFU LOC100653217 /// NTM (11731650_a_at) / Fold change /veh LOC100653217 /// NTM (11731650_a_at) / RFU MAPK11 (11762145_a_at) / Fold change /veh MAPK11 (11762145_a_at) / RFU FIZ1 (11724087_x_at) / Fold change /veh FIZ1 (11724087_x_at) / RFU OASL (11726364_x_at) / Fold change /veh OASL (11726364_x_at) / RFU SOX15 (11748057_x_at) / Fold change /veh SOX15 (11748057_x_at) / RFU CD79A (11719716_a_at) / Fold change /veh CD79A (11719716_a_at) / RFU HIST1H1D (11736915_at) / Fold change /veh HIST1H1D (11736915_at) / RFU CASKIN2 (11723855_a_at) / Fold change /veh CASKIN2 (11723855_a_at) / RFU LOC730098 (11760151_x_at) / Fold change /veh LOC730098 (11760151_x_at) / RFU OR4N2 (11742367_at) / Fold change /veh OR4N2 (11742367_at) / RFU PRRT2 (11749266_a_at) / Fold change /veh PRRT2 (11749266_a_at) / RFU SNX32 (11753110_a_at) / Fold change /veh SNX32 (11753110_a_at) / RFU CDHR5 (11726645_a_at) / Fold change /veh CDHR5 (11726645_a_at) / RFU RCAN1 (11760418_a_at) / Fold change /veh RCAN1 (11760418_a_at) / RFU FAM167A (11723789_a_at) / Fold change /veh FAM167A (11723789_a_at) / RFU FAM26E (11764081_at) / Fold change /veh FAM26E (11764081_at) / RFU ISYNA1 (11749810_s_at) / Fold change /veh ISYNA1 (11749810_s_at) / RFU ACY1 (11761880_at) / Fold change /veh ACY1 (11761880_at) / RFU 11764098_at / Fold change /veh 11764098_at / RFU SAMD14 (11745864_x_at) / Fold change /veh SAMD14 (11745864_x_at) / RFU NPB (11741838_a_at) / Fold change /veh NPB (11741838_a_at) / RFU TMPRSS6 (11731388_a_at) / Fold change /veh TMPRSS6 (11731388_a_at) / RFU KRTAP10-2 (11738614_at) / Fold change /veh KRTAP10-2 (11738614_at) / RFU ARHGAP8 /// PRR5-ARHGAP8 (11727945_x_at) / Fold change /veh ARHGAP8 /// PRR5-ARHGAP8 (11727945_x_at) / RFU KRTAP5-7 /// NADSYN1 (11734609_at) / Fold change /veh KRTAP5-7 /// NADSYN1 (11734609_at) / RFU RASL12 (11751679_a_at) / Fold change /veh RASL12 (11751679_a_at) / RFU CDKN2B (11736163_a_at) / Fold change /veh CDKN2B (11736163_a_at) / RFU PRF1 (11729649_at) / Fold change /veh PRF1 (11729649_at) / RFU, ZNF638 /// ZNF638-IT1 / Fold change vs veh, ZNF638 /// ZNF638-IT1 / RFU, PANK3 / Fold change vs veh, PANK3 / RFU, SH3YL1 / Fold change vs veh, SH3YL1 / RFU, ZEB2 / Fold change vs veh, ZEB2 / RFU, NRIP1 / Fold change vs veh, NRIP1 / RFU, PTTG1IP / Fold change vs veh, PTTG1IP / RFU, CAPN2 / Fold change vs veh, CAPN2 / RFU, MED14 / Fold change vs veh, MED14 / RFU, SNORA58 / Fold change vs veh, SNORA58 / RFU, C1orf63 / Fold change vs veh, C1orf63 / RFU, LRRFIP1 / Fold change vs veh, LRRFIP1 / RFU, NDUFAF7 / Fold change vs veh, NDUFAF7 / RFU, SLC12A2 / Fold change vs veh, SLC12A2 / RFU, IBTK / Fold change vs veh, IBTK / RFU, ESF1 / Fold change vs veh, ESF1 / Fold change vs veh, TMEM50B / RFU, TAOK1 / Fold change vs veh, TAOK1 / RFU, ACBD3 / Fold change vs veh, ACBD3 / RFU, TMA16 / Fold change vs veh, TMA16 / RFU, RWDD3 / Fold change vs veh, RWDD3 / RFU, BCAT1 / Fold change vs veh, BCAT1 / RFU, EDEM3 / Fold change vs veh, EDEM3 / RFU, TMEM33 / Fold change vs veh, TMEM33 / RFU, WDR75 / Fold change vs veh, WDR75 / RFU, AHCTF1 / Fold change vs veh, AHCTF1 / RFU, TFRC / Fold change vs veh, TFRC / RFU, ZDHHC17 / Fold change vs veh, ZDHHC17 / RFU, NOM1 / Fold change vs veh, NOM1 / RFU, ARL8B / Fold change vs veh, ARL8B / RFU, ZBTB11 / Fold change vs veh, ZBTB11 / RFU, TAMM41 / Fold change vs veh, TAMM41 / RFU, KIAA1704 /// LOC100996395 / Fold change vs veh, KIAA1704 /// LOC100996395 / RFU, ING1 / Fold change vs veh, ING1 / RFU, TRMT61B / Fold change vs veh, TRMT61B / RFU, FUBP3 / Fold change vs veh, FUBP3 / RFU, TP53 / Fold change vs veh, TP53 / RFU, TNKS2 / Fold change vs veh, TNKS2 / RFU, ZFP14 / Fold change vs veh, ZFP14 / RFU, ACTR2 / Fold change vs veh, ACTR2 / RFU, PPP3R1 / Fold change vs veh, PPP3R1 / RFU, PIK3R1 / Fold change vs veh, PIK3R1 / RFU, HNRNPA1 / Fold change vs veh, HNRNPA1 / RFU, RNF170 / Fold change vs veh, RNF170 / RFU, ZNF28 / Fold change vs veh, ZNF28 / RFU, RNGTT / Fold change vs veh, RNGTT / RFU, OGT / Fold change vs veh, OGT / RFU, BRD1 / Fold change vs veh, BRD1 / RFU, MARS / Fold change vs veh, MARS / RFU, ZNF655 / Fold change vs veh, ZNF655 / RFU, FAHD1 / Fold change vs veh, FAHD1 / RFU, BDP1 / Fold change vs veh, BDP1 / RFU, LRRCC1 / Fold change vs veh, LRRCC1 / RFU, ARID1A / Fold change vs veh, ARID1A / RFU, ZNF146 / Fold change vs veh, ZNF146 / RFU, ZNF330 / Fold change vs veh, ZNF330 / RFU, GPN3 / Fold change vs veh, GPN3 / RFU, C9orf123 / Fold change vs veh, C9orf123 / RFU, N4BP2L2 / Fold change vs veh, N4BP2L2 / RFU, ARFIP1 / Fold change vs veh, ARFIP1 / RFU, FAM179B / Fold change vs veh, FAM179B / RFU, BCL10 / Fold change vs veh, BCL10 / RFU, UHRF1BP1L / Fold change vs veh, UHRF1BP1L / RFU, BET1 / Fold change vs veh, BET1 / RFU, CNOT2 / Fold change vs veh, CNOT2 / RFU, ZNF268 / Fold change vs veh, ZNF268 / Fold change vs veh, ZNF507 / RFU, DGCR2 / Fold change vs veh, DGCR2 / RFU, WDSUB1 / Fold change vs veh, WDSUB1 / Fold change vs veh, HSP90B1 /// MIR3652 / RFU, ADSS / Fold change vs veh, ADSS / RFU, GK / Fold change vs veh, GK / RFU, ZNF148 / Fold change vs veh, ZNF148 / RFU, TAF9 / Fold change vs veh, TAF9 / RFU, SLC1A5 / Fold change vs veh, SLC1A5 / RFU, SLMO2 / Fold change vs veh, SLMO2 / RFU, ABCC4 / Fold change vs veh, ABCC4 / RFU, LOC101060439 /// RAP1B / Fold change vs veh, LOC101060439 /// RAP1B / RFU, RFX7 / Fold change vs veh, RFX7 / RFU, GTPBP10 / Fold change vs veh, GTPBP10 / RFU, CNEP1R1 / Fold change vs veh, CNEP1R1 / RFU, BIVM-ERCC5 /// ERCC5 / Fold change vs veh, BIVM-ERCC5 /// ERCC5 / RFU, ILF3 / Fold change vs veh, ILF3 / RFU 11762660_at / Fold change /veh 11762660_at / RFU VCAN (11757783_s_at) / Fold change /veh VCAN (11757783_s_at) / RFU DDX43 (11728927_at) / Fold change /veh DDX43 (11728927_at) / RFU KRT8 (11758188_x_at) / Fold change /veh KRT8 (11758188_x_at) / RFU NKD1 (11759106_at) / Fold change /veh NKD1 (11759106_at) / RFU SRD5A1 (11742802_a_at) / Fold change /veh SRD5A1 (11742802_a_at) / RFU TPSAB1 /// TPSB2 (11721975_s_at) / Fold change /veh TPSAB1 /// TPSB2 (11721975_s_at) / RFU GSTM3 (11746129_a_at) / Fold change /veh GSTM3 (11746129_a_at) / RFU IL23R (11737362_x_at) / Fold change /veh IL23R (11737362_x_at) / RFU TMEM51 (11727254_a_at) / Fold change /veh TMEM51 (11727254_a_at) / RFU PIWIL2 (11732686_x_at) / Fold change /veh PIWIL2 (11732686_x_at) / RFU ORM1 (11744905_x_at) / Fold change /veh ORM1 (11744905_x_at) / RFU CCDC152 (11743942_at) / Fold change /veh CCDC152 (11743942_at) / RFU ECM1 (11717891_a_at) / Fold change /veh ECM1 (11717891_a_at) / RFU IL23R (11748794_a_at) / Fold change /veh IL23R (11748794_a_at) / RFU TNFAIP8L3 (11732012_x_at) / Fold change /veh TNFAIP8L3 (11732012_x_at) / RFU MBOAT4 (11741988_at) / Fold change /veh MBOAT4 (11741988_at) / RFU 11764193_at / Fold change /veh 11764193_at / RFU TMEM53 (11763286_at) / Fold change /veh TMEM53 (11763286_at) / RFU MAGEB2 (11727129_at) / Fold change /veh MAGEB2 (11727129_at) / RFU TMEM200A (11744735_a_at) / Fold change /veh TMEM200A (11744735_a_at) / RFU CCDC152 (11751479_a_at) / Fold change /veh CCDC152 (11751479_a_at) / RFU FAM211A (11726209_a_at) / Fold change /veh FAM211A (11726209_a_at) / RFU RGS16 (11746705_a_at) / Fold change /veh RGS16 (11746705_a_at) / RFU VCAN (11755009_s_at) / Fold change /veh VCAN (11755009_s_at) / RFU RHOB (11743442_s_at) / Fold change /veh RHOB (11743442_s_at) / RFU RGS16 (11720943_a_at) / Fold change /veh RGS16 (11720943_a_at) / RFU RGS16 (11720944_at) / Fold change /veh RGS16 (11720944_at) / RFU, VPS4B / Fold change vs veh, VPS4B / RFU, CREB1 / Fold change vs veh, CREB1 / RFU, DNAJC13 / Fold change vs veh, DNAJC13 / RFU, GNAQ / Fold change vs veh, GNAQ / RFU, CDK5R1 / Fold change vs veh, CDK5R1 / RFU, ZRANB3 / Fold change vs veh, ZRANB3 / RFU, CUL4A / Fold change vs veh, CUL4A / RFU, CCNY / Fold change vs veh, CCNY / RFU, UFL1 / Fold change vs veh, UFL1 / RFU, COG3 / Fold change vs veh, COG3 / RFU, DIAPH2 / Fold change vs veh, DIAPH2 / RFU, SKA2 / Fold change vs veh, SKA2 / RFU, AFF3 / Fold change vs veh, AFF3 / RFU, LMF1 / Fold change vs veh, LMF1 / RFU, IPO11 / Fold change vs veh, IPO11 / RFU, DFFB / Fold change vs veh, DFFB / RFU, FOXP1 / Fold change vs veh, FOXP1 / RFU, CARD8 / Fold change vs veh, CARD8 / RFU, STRN3 / Fold change vs veh, STRN3 / RFU, ADK / Fold change vs veh, ADK / RFU, RASSF2 / Fold change vs veh, RASSF2 / RFU, WIPF1 / Fold change vs veh, WIPF1 / RFU, LARP1B / Fold change vs veh, LARP1B / RFU, RASA1 / Fold change vs veh, RASA1 / RFU, RB1 / Fold change vs veh, RB1 / RFU, PPFIA1 / Fold change vs veh, PPFIA1 / RFU, MAT2A / Fold change vs veh, MAT2A / RFU, CCT5 / Fold change vs veh, CCT5 / RFU, WDR92 / Fold change vs veh, WDR92 / RFU, CUX1 / Fold change vs veh, CUX1 / RFU, TTC7A / Fold change vs veh, TTC7A / RFU, TMEM135 / Fold change vs veh, TMEM135 / RFU, DEPTOR / Fold change vs veh, DEPTOR / RFU, CPM / Fold change vs veh, CPM / RFU, DNAJB6 / Fold change vs veh, DNAJB6 / RFU, CACNA2D3 / Fold change vs veh, CACNA2D3 / RFU, DTX4 / Fold change vs veh, DTX4 / RFU, TFCP2 / Fold change vs veh, TFCP2 / RFU, GMCL1 /// GMCL1P1 / Fold change vs veh, GMCL1 /// GMCL1P1 / RFU, AEBP2 / Fold change vs veh, AEBP2 / RFU, SNHG1 /// SNORD22 /// SNORD25 /// SNORD26 /// SNORD27 /// SNORD28 /// SNORD29 /// SNORD31 / Fold change vs veh, SNHG1 /// SNORD22 /// SNORD25 /// SNORD26 /// SNORD27 /// SNORD28 /// SNORD29 /// SNORD31 / Fold change (Aza/veh), C12orf56 (ProbeSet 11735607_a_at) / Fold change (ACY-1035/veh), C12orf56 (ProbeSet 11735607_a_at) / Fold change (Aza/veh), FGFR1OP (ProbeSet 11751329_s_at) / Fold change (ACY-1035/veh), FGFR1OP (ProbeSet 11751329_s_at) / Fold change (Aza/veh), VPS36 (ProbeSet 11739960_a_at) / Fold change (ACY-1035/veh), VPS36 (ProbeSet 11739960_a_at) / RFU SYPL1 (11715823_x_at) / Fold change /veh SYPL1 (11715823_x_at) / RFU IGFBP7 (11715501_s_at) / Fold change /veh IGFBP7 (11715501_s_at) / RFU REEP3 (11722064_at) / Fold change /veh REEP3 (11722064_at) / RFU IGLL1 (11728026_x_at) / Fold change /veh IGLL1 (11728026_x_at): dose or concentration left out as unconfirmed",
  "conditions": "MV-4-11 cells, 48 hours",
  "data": [
    {"smiles": "Nc1ncn([C@@H]2O[C@H](CO)[C@@H](O)[C@H]2O)c(=O)n1", "note": "[azacitidine]", "values": [
      {"measurement": "RFU TUBB4B (11761932_at)", "result": 18.89, "unit": "RFU"}
    ]}
  ]
}
